The structures appear in SMILES notation.

In one assay the target is T1, BMPR1A (Homo sapiens, UniProt P36894).
T1 construct: purchased DiscoverX
Put plainly: Proqinase Kinase profiling. In kind it is biochemical. The conditions noted are these: read-out: % inhibition at 100nM.

In the next assay the target is T2, MAP3K10 (Homo sapiens, UniProt Q02779).
T2 construct: purchased DiscoverX
Put plainly: Proqinase Kinase profiling. In kind it is biochemical. The conditions noted are these: read-out: % inhibition at 100nM.

A further assay has as its target T3, MAPKAPK5 (Homo sapiens, UniProt Q8IW41).
T3 construct: purchased DiscoverX
Put plainly: Proqinase Kinase profiling. In kind it is biochemical. The conditions noted are these: read-out: % inhibition at 100nM.

The next assay concerns the target T4, SRPK2 (Homo sapiens, UniProt P78362).
T4 construct: purchased DiscoverX
The experiment in a line: Proqinase Kinase profiling. Particulars: read-out: % inhibition at 100nM. It counts as biochemical.

The next assay addresses T5, CHEK1 (Homo sapiens, UniProt O14757).
T5 construct: purchased DiscoverX
The experiment in a line: Proqinase Kinase profiling. In kind it is biochemical. The conditions noted are these: read-out: % inhibition at 100nM.

The next assay has as its target T6, MST1R (Homo sapiens, UniProt Q04912).
T6 construct: purchased DiscoverX
The experiment in a line: Proqinase Kinase profiling. In kind it is biochemical. Particulars: read-out: % inhibition at 100nM.

The next assay concerns the target T7, EPHB2 (Homo sapiens, UniProt P29323).
T7 construct: purchased DiscoverX
Put plainly: Proqinase Kinase profiling. In kind it is biochemical. Particulars: read-out: % inhibition at 100nM.

In another assay the target is T8, MAP2K7 (Homo sapiens, UniProt O14733).
T8 construct: purchased DiscoverX
The experiment in a line: Proqinase Kinase profiling. In kind it is biochemical. The conditions noted are these: read-out: % inhibition at 100nM.

The next assay deals with T9, DDR2_T654M (Homo sapiens, UniProt Q16832, T654M).
T9 construct: purchased DiscoverX
Put plainly: Proqinase Kinase profiling. The conditions noted are these: read-out: % inhibition at 100nM. It counts as biochemical.

The next assay has as its target T10, TTBK2 (Homo sapiens, UniProt Q6IQ55).
T10 construct: purchased DiscoverX
Put plainly: Proqinase Kinase profiling. In kind it is biochemical. The conditions noted are these: read-out: % inhibition at 100nM.

The next assay concerns the target T11, CAMK2G (Homo sapiens, UniProt Q13555).
T11 construct: purchased DiscoverX
The experiment in a line: Proqinase Kinase profiling. It counts as biochemical. Particulars: read-out: % inhibition at 100nM.

Another assay deals with T12, ALK/NPM1 (Homo sapiens, UniProt P06748+Q9UM73).
T12 construct: purchased DiscoverX
The experiment in a line: Proqinase Kinase profiling. In kind it is biochemical. Particulars: read-out: % inhibition at 100nM.

For the next assay, the target named is T13, ALK_F1174L/NPM1 (Homo sapiens, UniProt P06748+Q9UM73, F1174L).
T13 construct: purchased DiscoverX
Put plainly: Proqinase Kinase profiling. It counts as biochemical. The conditions noted are these: read-out: % inhibition at 100nM.

Another assay has as its target T14, MAP2K4 (Homo sapiens, UniProt P45985).
T14 construct: purchased DiscoverX
Put plainly: Proqinase Kinase profiling. It counts as biochemical. Particulars: read-out: % inhibition at 100nM.

Another assay has as its target T15, CDK6_cyclinD3 (Homo sapiens, UniProt Q00534).
T15 construct: purchased DiscoverX
The experiment in a line: Proqinase Kinase profiling. In kind it is biochemical. The conditions noted are these: read-out: % inhibition at 100nM.

A further assay deals with T16, EPHA6 (Homo sapiens, UniProt Q9UF33).
T16 construct: purchased DiscoverX
Put plainly: Proqinase Kinase profiling. Particulars: read-out: % inhibition at 100nM. It counts as biochemical.

The target in the next assay is T17, TTBK1 (Homo sapiens, UniProt Q5TCY1).
T17 construct: purchased DiscoverX
Put plainly: Proqinase Kinase profiling. In kind it is biochemical. The conditions noted are these: read-out: % inhibition at 100nM.

Another assay deals with T18, BUB1B (Homo sapiens, UniProt O60566).
T18 construct: purchased DiscoverX
Put plainly: Proqinase Kinase profiling. Particulars: read-out: % inhibition at 100nM. It counts as biochemical.

In another assay the target is T19, PKMYT1 (Homo sapiens, UniProt Q99640).
T19 construct: purchased DiscoverX
The experiment in a line: Proqinase Kinase profiling. In kind it is biochemical. The conditions noted are these: read-out: % inhibition at 100nM.

For a further assay, the target named is T20, SIK1 (Homo sapiens, UniProt P57059).
T20 construct: purchased DiscoverX
The experiment in a line: Proqinase Kinase profiling. It counts as biochemical. The conditions noted are these: read-out: % inhibition at 100nM.

A further assay concerns the target T21, PKN3 (Homo sapiens, UniProt Q6P5Z2).
T21 construct: purchased DiscoverX
The experiment in a line: Proqinase Kinase profiling. In kind it is biochemical. Particulars: read-out: % inhibition at 100nM.

The target of another assay is T22, DDR2_N456S (Homo sapiens, UniProt Q16832, N456S).
T22 construct: purchased DiscoverX
The experiment in a line: Proqinase Kinase profiling. It counts as biochemical. The conditions noted are these: read-out: % inhibition at 100nM.

Another assay has as its target T23, MAP2K5 (Homo sapiens, UniProt Q13163).
T23 construct: purchased DiscoverX
The experiment in a line: Proqinase Kinase profiling. It counts as biochemical. Particulars: read-out: % inhibition at 100nM.

A further assay addresses T24, MLK4 (Homo sapiens, UniProt Q5TCX8).
T24 construct: purchased DiscoverX
The experiment in a line: Proqinase Kinase profiling. It counts as biochemical. Particulars: read-out: % inhibition at 100nM.

The next assay addresses T25, VRK2 (Homo sapiens, UniProt Q86Y07).
T25 construct: purchased DiscoverX
Put plainly: Proqinase Kinase profiling. The conditions noted are these: read-out: % inhibition at 100nM. It counts as biochemical.

For the next assay, the target named is T26, CDC7_DBF4 (Homo sapiens, UniProt O00311).
T26 construct: purchased DiscoverX
Put plainly: Proqinase Kinase profiling. Particulars: read-out: % inhibition at 100nM. In kind it is biochemical.

In another assay the target is T27, BRSK2 (Homo sapiens, UniProt Q8IWQ3).
T27 construct: purchased DiscoverX
Put plainly: Proqinase Kinase profiling. It counts as biochemical. The conditions noted are these: read-out: % inhibition at 100nM.

The test system of another assay is caALK6. The experiment in a line: BRE-LUC with constitutive active ALK6 in C2C12 cells. It counts as cell-based. Particulars: compound 0.5μM 16 hours. Here is the method:
(§1) Compounds were added for 16 hours at 0.5μM before luciferase activity was measured.
(§2) For luciferase reporter assays, cells were seeded in 24-well plates and transfected with DharmaFECT Duo (Fisher Scientific, Landsmeer, The Netherlands), following the recommendations of the manufacturer. 48 hours after transfection the cells were harvested and lysed. […] Each transfection mixture was equalized with empty vector when necessary and every experiment was performed in triplicate.

In another assay the target is T28, caALK1 (Homo sapiens, UniProt P37023, Q201D).
T28 construct: expressed in transfected cells; host or cells: C2C12 murine myofibroblast cells
The experiment in a line: BRE-LUC with constitutive active ALK1 in C2C12 cells. It counts as cell-based. The conditions noted are these: compound 0.5μM 16 hours. How it is done:
as §1, §2

T2 sequence (Q02779 whole entry): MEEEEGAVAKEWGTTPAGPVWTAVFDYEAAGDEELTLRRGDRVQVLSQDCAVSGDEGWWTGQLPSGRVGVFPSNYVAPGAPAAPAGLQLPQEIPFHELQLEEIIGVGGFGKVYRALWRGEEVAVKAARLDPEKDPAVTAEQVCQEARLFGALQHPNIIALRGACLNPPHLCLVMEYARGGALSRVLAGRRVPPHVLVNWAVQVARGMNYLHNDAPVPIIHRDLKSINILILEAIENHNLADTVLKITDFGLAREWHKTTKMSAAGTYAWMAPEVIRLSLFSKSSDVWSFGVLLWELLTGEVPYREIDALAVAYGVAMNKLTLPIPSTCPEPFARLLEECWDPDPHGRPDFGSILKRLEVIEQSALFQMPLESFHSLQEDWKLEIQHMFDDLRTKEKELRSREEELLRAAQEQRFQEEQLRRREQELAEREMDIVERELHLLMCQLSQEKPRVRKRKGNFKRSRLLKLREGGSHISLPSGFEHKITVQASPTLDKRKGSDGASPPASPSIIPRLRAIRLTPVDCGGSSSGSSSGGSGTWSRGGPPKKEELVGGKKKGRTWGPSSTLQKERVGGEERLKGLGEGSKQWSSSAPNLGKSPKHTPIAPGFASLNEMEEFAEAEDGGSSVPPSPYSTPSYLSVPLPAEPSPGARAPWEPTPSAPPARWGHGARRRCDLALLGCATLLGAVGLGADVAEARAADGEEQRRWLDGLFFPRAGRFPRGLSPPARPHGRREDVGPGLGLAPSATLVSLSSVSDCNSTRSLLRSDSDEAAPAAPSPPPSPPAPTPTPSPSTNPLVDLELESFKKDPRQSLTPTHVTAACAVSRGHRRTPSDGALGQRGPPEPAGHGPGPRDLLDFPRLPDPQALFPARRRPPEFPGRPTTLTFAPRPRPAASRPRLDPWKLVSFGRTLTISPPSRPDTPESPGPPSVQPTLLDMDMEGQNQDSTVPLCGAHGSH
T4 sequence (P78362 whole entry): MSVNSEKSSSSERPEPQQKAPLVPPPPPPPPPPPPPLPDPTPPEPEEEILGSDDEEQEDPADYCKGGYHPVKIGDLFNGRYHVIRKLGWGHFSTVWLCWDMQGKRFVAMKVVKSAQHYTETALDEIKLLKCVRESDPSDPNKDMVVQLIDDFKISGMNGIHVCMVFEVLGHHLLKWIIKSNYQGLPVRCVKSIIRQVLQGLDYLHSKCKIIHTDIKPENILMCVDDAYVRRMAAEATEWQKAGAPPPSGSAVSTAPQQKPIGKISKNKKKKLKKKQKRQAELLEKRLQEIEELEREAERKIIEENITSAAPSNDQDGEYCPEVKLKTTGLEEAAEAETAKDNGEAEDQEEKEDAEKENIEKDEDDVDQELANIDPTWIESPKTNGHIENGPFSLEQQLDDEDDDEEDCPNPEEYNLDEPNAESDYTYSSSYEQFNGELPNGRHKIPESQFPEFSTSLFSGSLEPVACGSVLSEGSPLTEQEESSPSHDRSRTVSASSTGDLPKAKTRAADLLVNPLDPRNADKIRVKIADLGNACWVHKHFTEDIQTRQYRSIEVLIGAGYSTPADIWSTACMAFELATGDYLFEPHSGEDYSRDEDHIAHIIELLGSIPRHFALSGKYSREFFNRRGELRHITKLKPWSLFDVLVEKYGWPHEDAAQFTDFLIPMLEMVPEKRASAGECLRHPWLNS
T6 sequence (Q04912 25-1400): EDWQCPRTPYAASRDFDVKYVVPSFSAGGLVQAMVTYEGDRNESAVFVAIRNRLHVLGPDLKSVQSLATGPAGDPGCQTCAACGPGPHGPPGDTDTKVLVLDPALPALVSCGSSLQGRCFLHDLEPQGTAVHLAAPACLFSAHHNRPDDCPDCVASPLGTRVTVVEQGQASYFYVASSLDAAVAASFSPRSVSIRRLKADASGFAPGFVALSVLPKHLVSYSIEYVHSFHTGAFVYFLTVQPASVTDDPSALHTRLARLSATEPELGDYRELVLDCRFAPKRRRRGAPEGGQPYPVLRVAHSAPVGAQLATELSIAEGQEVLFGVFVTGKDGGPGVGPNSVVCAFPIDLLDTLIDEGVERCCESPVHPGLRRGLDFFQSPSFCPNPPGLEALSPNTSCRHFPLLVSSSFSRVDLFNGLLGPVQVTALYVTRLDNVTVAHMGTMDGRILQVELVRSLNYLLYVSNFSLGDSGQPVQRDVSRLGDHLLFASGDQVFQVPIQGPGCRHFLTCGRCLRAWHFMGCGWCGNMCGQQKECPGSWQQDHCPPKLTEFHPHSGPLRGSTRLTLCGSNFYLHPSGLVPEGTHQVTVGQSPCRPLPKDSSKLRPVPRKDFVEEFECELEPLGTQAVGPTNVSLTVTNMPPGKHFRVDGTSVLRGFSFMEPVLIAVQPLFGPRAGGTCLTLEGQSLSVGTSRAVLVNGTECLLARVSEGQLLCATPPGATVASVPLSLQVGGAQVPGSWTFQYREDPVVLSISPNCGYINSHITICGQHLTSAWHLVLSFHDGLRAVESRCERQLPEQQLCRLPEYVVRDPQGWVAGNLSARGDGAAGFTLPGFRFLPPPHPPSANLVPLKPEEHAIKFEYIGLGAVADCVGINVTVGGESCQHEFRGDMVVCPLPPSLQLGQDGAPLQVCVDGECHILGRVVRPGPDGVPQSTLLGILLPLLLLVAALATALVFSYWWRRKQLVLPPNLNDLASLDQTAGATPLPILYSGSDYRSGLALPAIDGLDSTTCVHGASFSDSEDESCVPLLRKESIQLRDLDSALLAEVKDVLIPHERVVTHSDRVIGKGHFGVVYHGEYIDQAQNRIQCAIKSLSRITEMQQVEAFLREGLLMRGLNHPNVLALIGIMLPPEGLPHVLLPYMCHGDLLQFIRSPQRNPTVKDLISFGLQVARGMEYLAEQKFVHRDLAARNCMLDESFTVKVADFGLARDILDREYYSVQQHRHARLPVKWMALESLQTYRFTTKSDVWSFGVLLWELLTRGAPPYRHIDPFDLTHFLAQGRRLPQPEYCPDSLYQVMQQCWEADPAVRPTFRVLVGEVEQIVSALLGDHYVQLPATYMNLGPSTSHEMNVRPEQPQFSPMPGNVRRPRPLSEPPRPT
T7 sequence (P29323 19-1055): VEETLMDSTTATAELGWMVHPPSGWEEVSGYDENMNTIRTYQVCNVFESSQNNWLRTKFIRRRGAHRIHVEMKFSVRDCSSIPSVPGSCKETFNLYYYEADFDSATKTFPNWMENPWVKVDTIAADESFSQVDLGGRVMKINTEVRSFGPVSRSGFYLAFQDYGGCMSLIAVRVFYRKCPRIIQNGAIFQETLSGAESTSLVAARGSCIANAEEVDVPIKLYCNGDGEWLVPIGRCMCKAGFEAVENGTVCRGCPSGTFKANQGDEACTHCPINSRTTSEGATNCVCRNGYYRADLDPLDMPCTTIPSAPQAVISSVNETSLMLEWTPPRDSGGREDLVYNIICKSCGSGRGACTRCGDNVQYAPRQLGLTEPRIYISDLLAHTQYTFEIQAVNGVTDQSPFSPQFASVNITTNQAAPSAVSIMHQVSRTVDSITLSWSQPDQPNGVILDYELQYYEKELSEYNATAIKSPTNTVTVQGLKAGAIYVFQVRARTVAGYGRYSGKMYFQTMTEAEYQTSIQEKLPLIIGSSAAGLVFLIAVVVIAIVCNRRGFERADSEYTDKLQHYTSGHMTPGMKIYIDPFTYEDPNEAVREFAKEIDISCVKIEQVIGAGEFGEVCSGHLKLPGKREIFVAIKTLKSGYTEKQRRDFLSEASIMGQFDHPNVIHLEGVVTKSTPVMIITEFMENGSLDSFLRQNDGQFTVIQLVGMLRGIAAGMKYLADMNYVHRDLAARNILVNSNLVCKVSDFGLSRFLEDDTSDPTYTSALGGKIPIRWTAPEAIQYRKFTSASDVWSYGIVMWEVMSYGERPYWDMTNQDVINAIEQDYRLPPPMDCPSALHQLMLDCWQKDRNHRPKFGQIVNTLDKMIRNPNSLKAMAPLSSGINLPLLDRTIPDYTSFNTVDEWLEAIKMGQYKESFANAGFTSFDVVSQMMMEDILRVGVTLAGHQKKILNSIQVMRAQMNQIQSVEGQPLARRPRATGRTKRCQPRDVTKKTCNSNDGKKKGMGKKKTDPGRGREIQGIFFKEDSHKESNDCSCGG
T3 sequence (Q8IW41 whole entry): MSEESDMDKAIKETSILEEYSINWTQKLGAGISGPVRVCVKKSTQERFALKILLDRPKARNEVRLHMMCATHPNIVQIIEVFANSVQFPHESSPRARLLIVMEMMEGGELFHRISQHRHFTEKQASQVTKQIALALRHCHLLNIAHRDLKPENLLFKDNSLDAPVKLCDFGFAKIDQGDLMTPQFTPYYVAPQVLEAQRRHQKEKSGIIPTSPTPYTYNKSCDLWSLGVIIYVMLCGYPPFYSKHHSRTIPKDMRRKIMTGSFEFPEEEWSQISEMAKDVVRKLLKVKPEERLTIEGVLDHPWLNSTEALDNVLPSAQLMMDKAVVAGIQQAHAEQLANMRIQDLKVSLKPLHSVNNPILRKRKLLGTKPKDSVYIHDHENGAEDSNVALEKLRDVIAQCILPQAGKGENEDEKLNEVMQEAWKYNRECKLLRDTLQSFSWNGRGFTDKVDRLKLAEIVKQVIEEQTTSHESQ
T1 sequence (P36894 24-532): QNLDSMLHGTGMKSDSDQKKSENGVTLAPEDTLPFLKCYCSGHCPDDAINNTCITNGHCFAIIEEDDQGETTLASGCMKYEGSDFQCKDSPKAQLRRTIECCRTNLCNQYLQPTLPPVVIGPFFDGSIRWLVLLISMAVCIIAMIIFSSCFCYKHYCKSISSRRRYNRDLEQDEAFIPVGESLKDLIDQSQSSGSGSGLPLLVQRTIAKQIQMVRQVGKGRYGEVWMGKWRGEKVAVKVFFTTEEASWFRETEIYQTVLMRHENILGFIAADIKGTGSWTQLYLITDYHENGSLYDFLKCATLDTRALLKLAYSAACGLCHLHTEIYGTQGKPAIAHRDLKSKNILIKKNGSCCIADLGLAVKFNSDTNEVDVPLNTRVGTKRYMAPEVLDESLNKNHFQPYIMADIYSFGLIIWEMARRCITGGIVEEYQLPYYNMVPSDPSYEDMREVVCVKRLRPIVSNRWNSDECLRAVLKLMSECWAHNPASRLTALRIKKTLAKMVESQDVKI

In the case of `Clc1cc2cc(c1)-c1cnn3ccc(nc13)NCCOCCO2` [OD36], the inhibition (usually the drop in the measured response relative to a control, in per cent) at 0.1 µM was 9% at BMPR1A; 13% at MAP3K10; 12% on MAPKAPK5; -2% at SRPK2; 11% on CHEK1; -3% on MST1R. Moreover, the inhibition at 0.1 µM at EPHB2 is -2%.

For `Cc1cc2cc(c1)-c1cnn3ccc(nc13)NCCNC(=O)CCN(C)C2` [OD52], the inhibition at 0.1 µM at MAP2K7 is 4%; on DDR2_T654M, 15%; at TTBK2, 4%; on CAMK2G, 10%; on BMPR1A, -7%; at MAP3K10, -3%. Besides, the inhibition at 0.1 µM on MAPKAPK5 was 26%; on ALK/NPM1, -5%; on SRPK2, -16%; at ALK_F1174L/NPM1, -16%; at MAP2K4, 17%; on CDK6_cyclinD3 it was -7%. Further, the inhibition at 0.1 µM on CHEK1 was -8%; at EPHA6, -12%; on TTBK1 it was 8%; on MST1R, -24%; at BUB1B, -10%; on PKMYT1, 6%. Moreover, the inhibition at 0.1 µM is -2% at SIK1; 16% at PKN3; 15% at EPHB2; 33% at DDR2_N456S; -9% at MAP2K5; -11% on MLK4. For the same compound, the inhibition at 0.1 µM is 6% at VRK2, 6% at CDC7_DBF4 and -13% on BRSK2.

On to `c1ccc2c(-c3cnn4cc(-c5ccc(N6CCNCC6)cc5)cnc34)ccnc2c1` [LDN-193189, reference compound], for which, in the assay with caALK6, the “Inhibition of caALK6-driven BRE-LUC activity” value is “significantly inhibited”. Also, on caALK1, the “Inhibition of caALK1-driven BRE-LUC activity” value was “significantly inhibited”.

For the origin of these results see publication PMC6874179, “Development of Macrocycle Kinase Inhibitors for ALK2 Using Fibrodysplasia Ossificans Progressiva‐Derived Endothelial Cells” (JBMR Plus, 2019).
